Data published in US20260265195A1, “SARM1 MODULATORS, PREPARATIONS, AND USES THEREOF” (SIRONAX LTD, priority 2022, published 2026).

What follows are molecules tested against T1, SARM1 (50-724) (Homo sapiens, UniProt Q6SZW1) (assay: SARM1 (50-724) enzymatic assay (NMN-activated NAD+ hydrolysis, LC-MS/MS readout)). Details: purified SARM1 (50-724) 2 nM, 200 μM NMN activator, 100 μM NAD+ substrate, 1 h at room temperature, read-out: IC50 (SARM1 inhibitory activity).
T1 construct: Purified SARM1 (50-724) with a final concentration of 2 nM
T1 sequence (Q6SZW1 50-724): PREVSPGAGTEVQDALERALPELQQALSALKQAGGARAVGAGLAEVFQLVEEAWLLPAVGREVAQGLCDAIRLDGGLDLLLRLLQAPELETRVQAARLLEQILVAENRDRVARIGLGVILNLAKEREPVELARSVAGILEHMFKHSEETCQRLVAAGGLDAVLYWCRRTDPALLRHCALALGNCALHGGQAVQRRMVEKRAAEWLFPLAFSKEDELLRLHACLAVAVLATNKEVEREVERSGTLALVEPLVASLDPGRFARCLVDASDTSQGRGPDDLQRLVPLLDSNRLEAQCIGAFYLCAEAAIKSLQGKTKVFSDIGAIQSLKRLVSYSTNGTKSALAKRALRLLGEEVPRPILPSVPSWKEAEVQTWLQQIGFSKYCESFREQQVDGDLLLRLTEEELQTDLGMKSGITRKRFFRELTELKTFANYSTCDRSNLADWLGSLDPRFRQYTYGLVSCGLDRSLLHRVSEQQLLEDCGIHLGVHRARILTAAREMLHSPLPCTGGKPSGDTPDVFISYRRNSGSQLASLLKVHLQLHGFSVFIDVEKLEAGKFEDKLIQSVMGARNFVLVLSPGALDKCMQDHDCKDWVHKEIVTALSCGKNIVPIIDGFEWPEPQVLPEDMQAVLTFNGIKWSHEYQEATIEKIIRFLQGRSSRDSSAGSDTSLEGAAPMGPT
Type: biochemical
Procedure: Example II. SARM1 (50-724) Enzymatic Assay
An enzymatic assay was performed in a 384-well plate using Dulbecco's phosphate-buffered saline (PBS) as the reaction buffer. Purified SARM1 (50-724) with a final concentration of 2 nM was pre-incubated with a test compound at 1% DMSO final assay concentration for 15 min at room temperature. The reaction was initiated by adding a mixture of 200 μM nicotinamide mononucleotide (NMN) as activator and 100 μM NAD^+ as substrate. After 1 h of incubation at room temperature, the reaction was terminated with 10 times volume of 70% acetonitrile, then centrifuged at 3800 rpm for 10 min. The samples were analyzed using LC-MS/MS after diluted to a proper concentration by 10 mM ammonium acetate (pH 9.75).
ND means “not determined.”

SMILES	IC50
Cc1ccnc(N(CC(F)(F)CO)C(=O)c2nc3cc(C(F)(F)F)ccc3[nH]2)c1Cl [Compound 156, N-(3-chloro-4-methylpyridin-2-yl)-N-(2,2-difluoro-3-hydroxypropyl)-5-(trifluoromethyl)-1H-benzo[d]imidazole-2-carboxamide]	101 to 500 nM
CN(C(=O)c1nc2c(S(C)(=O)=O)cccc2[nH]1)C1CCCC1 [Compound 99, N-cyclopentyl-N-methyl-4-(methylsulfonyl)-1H-benzo[d]imidazole-2-carboxamide]	≥ 1000 nM
Cc1ccc2[nH]c(C(=O)N(C)c3cccc(C#N)c3)c(CO)c2c1 [Compound 8, N-(3-cyanophenyl)-3-(hydroxymethyl)-N,5-dimethyl-1//-indole-2-carboxamide]	≥ 1000 nM
CN(C(=O)c1nc2c(C3CC(O)C3)cccc2[nH]1)C1CCCC1 (stereo not drawn) [Compound 176, N-cyclopentyl-4-((1s,3s)-3-hydroxycyclobutyl)-N-methyl-1H-benzo[d]imidazole-2-carboxamide]	≥ 1000 nM
O=C(c1nc2cc(C(F)(F)F)cc(F)c2[nH]1)N(c1cccc(F)c1Cl)C1CCS(=O)(=O)CC1 [Compound 130]	≤ 100 nM
O=C(c1nc2cc(C(O)C3CC3)ccc2[nH]1)N(CCO)c1cccc(Cl)c1Cl (racemic) [Compound 162]	≥ 1000 nM
O=C(c1nc2cc(C(F)(F)F)ccc2[nH]1)N(CC1(F)COC1)c1cccc(F)c1Cl [Compound 186, N-(2-chloro-3-fluorophenyl)-N-((3-fluorooxetan-3-yl)methyl)-5-(trifluoromethyl)-1H-benzo[d]imidazole-2-carboxamide]	≤ 100 nM
CN(C(=O)c1[nH]c2cc(Br)ccc2c1CO)C1CCCC1 [Compound 40, 6-bromo-N-cyclopentyl-3-(hydroxymethyl)-N-methyl-1H-indole-2-carboxamidc]	≥ 1000 nM
NC(=O)C(F)(F)CN(C(=O)c1nc2cc(Cl)cc(F)c2[nH]1)c1ccc(F)c(F)c1Cl [Compound 231]	≤ 100 nM
O=C(c1nc2cc(C(F)(F)F)cc(F)c2[nH]1)N(c1cccc(F)c1Cl)C1CCS(=O)(=O)C1 (racemic) [Compound 192]	≤ 100 nM
O=C(c1nc2cc(-c3cscn3)ccc2[nH]1)N(CCO)c1cccc(Cl)c1Cl [Compound 161]	≤ 100 nM
O=C(c1nc2cc(C(F)(F)F)ccc2[nH]1)N(CCO)c1cccc(F)c1Cl [Compound 157, N-(2-chloro-3-fluorophenyl)-N-(2-hydroxyethyl)-5-(trifluoromethyl)-1H-benzo[d]imidazole-2-carboxamide]	≤ 100 nM
Cn1nc(N(CC2COC2)C(=O)c2nc3cc(C(F)(F)F)ccc3[nH]2)c(Cl)c1Cl [Compound 111, N-(4,5-dichloro-1-methyl-1H-pyrazol-3-yl)-N-(oxetan-3-ylmethyl)-5-(trifluoromethyl)-1H-benzo[d]imidazole-2-carboxamide]	≤ 100 nM
Cc1ccnc(N(CCO)C(=O)c2nc3cc(C(F)(F)F)ccc3[nH]2)c1Cl [Compound 138, N-(3-chloro-4-methylpyridin-2-yl)-N-(2-hydroxyethyl)-5-(trifluoromethyl)-1H-benzo[d]imidazole-2-carboxamide]	101 to 500 nM
Cc1ccc(N(C)C(=O)c2[nH]c3ccc(C)cc3c2CO)cc1 [Compound 44, 3-(hydroxymethyl)-N,5-dimethyl-N-(p-tolyl)-1H-indole-2-carboxamide]	≥ 1000 nM
CN(C(=O)c1[nH]ccc1CO)C1CCCC1 [Compound 45, N-cyclopentyl-3-(hydroxymethyl)-N-mcthyl-1H-pyrrole-2-carboxamide]	≥ 1000 nM
Cc1ccc2[nH]c(C(=O)N(CC3COC3)C3CCCC3)nc2c1 [Compound 65, N-cyclopentyl-5-methyl-N-(oxetan-3-ylmethyl)-1H-benzo[d]imidazole-2-carboxamide]	≥ 1000 nM
CC(=O)NCCN(C(=O)c1nc2cc(C(F)(F)F)ccc2[nH]1)c1cccc(Cl)c1Cl [Compound 146, N-(2-acctamidoethyl)-N-(2,3-dichlorophenyl)-5-(trifluoromethyl)-1H-benzo[d]imidazole-2-carboxamide]	≤ 100 nM
O=C(c1nc2cc(C(F)(F)F)ccc2[nH]1)N(CC1(CO)COC1)c1cccc(Cl)c1Cl [Compound 174, N-(2,3-dichlorophenyl)-N-((3-(hydroxymethyl)oxetan-3-yl)methyl)-5-(trifluoromethyl)-1H-benzo[d]imidazole-2-carboxamido]	≤ 100 nM
O=C(c1nc2cc(-c3ccn[nH]3)ccc2[nH]1)N(CC1COC1)c1cccc(Cl)c1Cl [Compound 119]	101 to 500 nM
O=C(c1nc2cc(C(F)(F)F)ccc2[nH]1)N(CCOC1COC1)c1cccc(Cl)c1Cl [Compound 178, N-(2,3-dichlorophenyl)-N-(2-(oxetan-3-yloxy)ethyl)-5-(trifluoromethyl)-1H-benzo[d]imidazole-2-carboxamide]	≤ 100 nM
CN(C(=O)c1[nH]c2ccc(F)cc2c1CO)C1CCCC1 [Compound 32, N-cyclopentyl-5-fluoro-3-(hydroxymethyl)-N-methyl-1H-indole-2-carboxamide]	≥ 1000 nM
O=C(c1nc2cc(C3CCCO3)ccc2[nH]1)N(CCO)c1cccc(Cl)c1Cl (racemic) [Compound 196]	≤ 100 nM
CN(C(=O)c1nc2c(N3CCOCC3)cccc2[nH]1)C1CCCC1 [Compound 101, N-cyclopentyl-N-methyl-4-morpholino-1H-benzo[d]imidazole-2-carboxamide]	≥ 1000 nM

Results, then the molecule that gave them:

IC50	SMILES
101 to 500 nM	Cc1ccc2[nH]c(C(=O)N(C)c3ccccc3Cl)c(CO)c2c1 [Compound 6, N-(2-chlorophenyl)-3-(hydroxymethyl)-N,5-dimethyl-1H-indole-2-carboxamide]
≤ 100 nM	O=C(c1nc2cc(C(F)(F)F)ccc2[nH]1)N(CCOCCO)c1cccc(Cl)c1Cl [Compound 128, N-(2,3-dichlorophenyl)-N-(2-(2-hydroxyethoxy)ethyl)-5-(trifluoromethyl)-1H-benzo[d]imidazole-2-carboxamide]
101 to 500 nM	Cc1ccc2[nH]c(C(=O)N(C)C3CCCC3)c(CNc3cncs3)c2c1 [Compound 78, N-cyclopentyl-N,5-dimethyl-3-((thiazol-5-ylamino)methyl)-1H-indole-2-carboxamide]
≥ 1000 nM	Cc1ccc2c(CO)c(C(=O)N(C)C3CCCC3)n(CC(N)=O)c2c1 [Compound 23, 1-(2-amino-2-oxoethyl)-N-cyclopentyl-3-(hydroxymethyl)-N,6-dimethyl-1H-indole-2-carboxamide]
≤ 100 nM	O=C(c1nc2cc(C3CC3)ccc2[nH]1)N(CC(F)(F)CO)c1ccc(F)c(F)c1Cl [Compound 222]
≥ 1000 nM	Cc1ccc2[nH]c(C(=O)N(C)C3C[C@@H](C)O[C@@H](C)C3)c(CO)c2c1 (stereo partly drawn) [Compound 42, N-((2R,6S)-2,6-dimethyltetrahydro-2H-pyran-4-yl)-3-(hydroxymethyl)-N,5-dimethyl-1H-indole-2-carboxamide]
≤ 100 nM	O=C(c1nc2cc(C(F)(F)F)ccc2[nH]1)N(CCN1CC(O)C1)c1cccc(Cl)c1Cl [Compound 179, N-(2,3-dichlorophenyl)-N-(2-(3-hydroxyazetidin-1-yl)ethyl)-5-(trifluoromethyl)-1H-benzo[d]imidazole-2-carboxamide]
≤ 100 nM	[2H]C([2H])([2H])N(C(=O)c1nc2cc(C(F)(F)F)ccc2[nH]1)c1cncc(Cl)c1C [Compound 166, N-(5-chloro-4-methylpyridin-3-yl)-N-(methyl-d3)-5-(trifluoromethyl)-1H-benzo[d]imidazole-2-carboxamido]
101 to 500 nM	Cc1ccc2[nH]c(C(=O)N(C)C3CCCC3)nc2c1C [Compound 92, N-cyclopentyl-N,6,7-trimethyl-1H-benzo[d]imidazole-2-carboxamide]
≥ 1000 nM	Cc1ccc2[nH]c(C(=O)N(C)c3cccc(C(F)(F)F)c3)c(CO)c2c1 [Compound 10, 3-(hydroxymethyl)-N,5-dimethyl-N-(3-(trifluoromethyl)phenyl)-1H-indole-2-carboxamide]
≤ 100 nM	O=C(c1nc2cc(C(F)(F)F)ccc2[nH]1)N(CC1CS(=O)(=O)C1)c1cccc(Cl)c1Cl [Compound 180, N-(2,3-dichlorophenyl)-N-((1,1-dioxidothietan-3-yl)methyl)-5-(trifluoromethyl)-1H-benzo[d]imidazole-2-carboxamide]
≤ 100 nM	CCOC(=O)C(F)(F)CN(C(=O)c1nc2cc(C3CC3)ccc2[nH]1)c1cccc(F)c1Cl [Compound 209]
